Experimental data from patent publication US20070010489A1 (priority 2002, published 2007).
Values joined by “and” are separate entries in the source; they are usually repeats but may differ in a detail not shown here. Equal entries are not always repeated. Where two headings read alike, the source gives them in different places.

Legend:
[1] = system: wild-type HIV-1 strain IIIB; assay: microbe, parasite or virus in culture; format: cell-based
[2] = system: mutant HIV-1 with I84V/L90M mutations; assay: microbe, parasite or virus in culture; format: cell-based
84V90M [3] = target: T1, 84V90M (Human immunodeficiency virus type 1 group M subtype B, UniProt P04585, I572V/L578M); format: biochemical, HIV; details: Enzymatic assay
84V90M [4] = target: T1, 84V90M; assay: cell-based; parameters: species or system HIV; details: Cell-based assay (MT-4)
[5] = target: T2, recombinant HIV-1 protease (Human immunodeficiency virus type 1 group M subtype B, UniProt P04585); assay: biochemical
T2 construct: Enzyme: recombinant HIV-1 protease expressed in E. Coli; purchased Bachem California, Inc. H-9040; host or cells: E. coli

[6] = Human immunodeficiency virus 1, IIIB
[7] = fold difference in EC50 mutant vs wild type, class symbols
[8] = Human immunodeficiency virus 1, IIIB, class symbols
[9] = read-out: HIV-1 protease inhibition Ki
[10] = read-out: Anti-HIV-1 Cell Culture Activity EC50

CCOC(=O)C(C)NP(=O)(Cc1ccc(NCC(NC(=O)OC2COC3OCCC23)C(O)CN(CC(C)C)S(=O)(=O)c2ccc(OC)cc2)cc1)NC(C)C(=O)OCC (centres unmarked)
EC50 [1, 6]: 50 to 500 nM | I84V/L90M fold change [2, 7]: − (≦3)

CCOP(=O)(OCC)c1ccc(CNCC(NC(=O)OC2COC3OCCC23)C(O)CN(CC(C)C)S(=O)(=O)c2ccc(OC)cc2)cc1 (centres unmarked)
EC50 [1, 6]: < 50 nM | I84V/L90M fold change [2, 7]: ++ (>10 to ≦30)

CCOP(=O)(OCC)c1ccc(CN(C)CC(NC(=O)OC2COC3OCCC23)C(O)CN(CC(C)C)S(=O)(=O)c2ccc(OC)cc2)cc1 (centres unmarked)
EC50 [1, 6]: < 50 nM | I84V/L90M fold change [2, 7]: − (≦3)

COc1ccc(S(=O)(=O)N(CC(C)C)CC(O)C(Cc2ccc(CO)cc2)NC(=O)OC2COC3OCCC23)cc1 (centres unmarked)
EC50 [1, 6]: < 50 nM | I84V/L90M fold change ([2]; fold change): − (≦3)

COc1ccc(S(=O)(=O)N(CCN(C)C)CC(O)C(Cc2ccc(O)cc2)NC(=O)OC2COC3OCCC23)cc1 (centres unmarked)
EC50 [1, 6]: 50 to 500 nM | I84V/L90M fold change ([2]; fold change): − (≦3)

COc1ccc(S(=O)(=O)N(CCN(C)C)CC(O)C(Cc2ccc(OCc3ccccc3)cc2)NC(=O)OC2COC3OCCC23)cc1 (centres unmarked)
EC50 [1, 6]: < 50 nM | I84V/L90M fold change ([2]; fold change): − (≦3)

Cc1cccc(C)c1OCC(=O)NC(Cc1ccc(OCP(=O)(OCc2ccccc2)OCc2ccccc2)cc1)C(O)CN(CC(C)C)S(=O)(=O)c1ccc(N)cc1 (centres unmarked)
EC50 [1, 6]: 50 to 500 nM | I84V/L90M fold change ([2]; fold change): − (≦3)

CCOP(=O)(COc1ccc(S(=O)(=O)N(CC(C)C)CC(O)C(Cc2ccccc2)NC(=O)OC2COC3OCCC23)cc1)OCC (centres unmarked)
EC50 [1, 6]: < 50 nM | I84V/L90M fold change ([2]; fold change): ++ (>10 to ≦30)

CC(C)CN(CC(O)C(Cc1ccccc1)NC(=O)OC1COC2OCCC12)S(=O)(=O)c1ccc(OCP(=O)(OCc2ccccc2)OCc2ccccc2)cc1 (centres unmarked)
EC50 [1, 6]: 50 to 500 nM | I84V/L90M fold change ([2]; fold change): +++ (>30)

COc1cccc(S(=O)(=O)N(CC(C)C)CC(O)C(Cc2ccccc2)NC(=O)OC2COC3OCCC23)c1 (centres unmarked)
EC50 [1, 6]: < 50 nM | I84V/L90M fold change ([2]; fold change): ++ (>10 to ≦30)

CCOP(=O)(COc1cccc(S(=O)(=O)N(CC(C)C)CC(O)C(Cc2ccccc2)NC(=O)OC2COC3OCCC23)c1)OCC (centres unmarked)
EC50 [1, 6]: < 50 nM | I84V/L90M fold change ([2]; fold change): ++ (>10 to ≦30)

CC(C)CN(CC(O)C(Cc1ccccc1)NC(=O)OC1COC2OCCC12)S(=O)(=O)c1cccc(OCP(=O)(OCc2ccccc2)OCc2ccccc2)c1 (centres unmarked)
EC50 [1, 6]: < 50 nM | I84V/L90M fold change ([2]; fold change): ++ (>10 to ≦30)

COc1ccc(S(=O)(=O)N(CC(C)C)CC(O)C(Cc2ccccc2)NC(=O)OC2COC3OCCC23)cc1OCP(=O)(OCc1ccccc1)OCc1ccccc1 (centres unmarked)
I84V/L90M fold change ([2]; fold change): ++ (>10 to ≦30)

CCOP(=O)(COc1ccc(CC2C(O)C(O)C(Cc3ccccc3)N(Cc3ccccc3)C(=O)N2Cc2ccccc2)cc1)OCC (centres unmarked)
IC50 (84V90M [3]): 48 nM | EC50 (84V90M [4]): 2460 nM

CCOP(=O)(COCCCCN1C(=O)N(Cc2ccc3[nH]nc(N)c3c2)C(Cc2ccccc2)C(O)C(O)C1Cc1ccccc1)OCC (centres unmarked) [CH2OCH2PO3Et2]
IC50 (84V90M [3]): 123 nM | EC50 (84V90M [4]): 3300 nM

Nc1n[nH]c2ccc(CN3C(=O)N(CCCCOCP(=O)(O)O)C(Cc4ccccc4)C(O)C(O)C3Cc3ccccc3)cc12 (centres unmarked) [CH2OCH2PO3H2]
IC50 (84V90M [3]): 205 nM | EC50 (84V90M [4]): > 4240 nM

CCOC(=O)C(CC)OP(=O)(COc1ccc(CC(NC(=O)OC2COC3OCCC23)C(O)CN(CC(C)C)S(=O)(=O)c2ccc(OC)cc2)cc1)Oc1ccccc1 (centres unmarked) [Compound 5a]
Ki ([5]; Ki (pM), class symbols): 10 to 100 pM | EC50 [1, 8]: < 50 nM | I84V/L90M fold change [2, 7]: − (≦3)

CCOC(=O)C(CC)OP(=O)(COc1ccc(CC(NC(=O)OC2COC3OCCC23)C(O)CN(CC(C)C)S(=O)(=O)c2ccc(OC)cc2)cc1)Oc1ccccc1 (centres unmarked) [Compound 5b]
Ki ([5]; Ki (pM), class symbols): 100 to 1000 pM

CCCCN1C(=O)N(Cc2ccc3[nH]nc(N)c3c2)C(Cc2ccccc2)C(O)C(O)C1Cc1ccccc1 (centres unmarked) [DMP-851]
IC50 (84V90M [3]): 9.4 nM | EC50 (84V90M [4]): 918 nM

CCOC(=O)C(CC)NP(=O)(COc1ccc(CC(NC(=O)OC2COC3OCCC23)C(O)CN(CC(C)C)S(=O)(=O)c2ccc(OC)cc2)cc1)NC(CC)C(=O)OCC (centres unmarked) [Example 16e]
Ki [5, 9]: 8.8 ± 1.7 pM | EC50 [1, 10]: 12.5 ± 3.5 nM

CCOC(=O)C(CC(C)C)NP(=O)(COc1ccc(CC(NC(=O)OC2COC3OCCC23)C(O)CN(CC(C)C)S(=O)(=O)c2ccc(OC)cc2)cc1)NC(CC(C)C)C(=O)OCC (centres unmarked) [Example 16g]
Ki [5, 9]: 29 ± 9 pM | EC50 [1, 10]: 6.8 ± 0.4 nM

CC(C)CN(C[C@@H](O)[C@H](Cc1ccc(OCP(=O)(Oc2ccccc2)Oc2ccccc2)cc1)NC(=O)OC1CCOC1)S(=O)(=O)c1ccc(N)cc1 (some centres unmarked) [NH2, phenol]
EC50 ([1]; read-out: EC50): 50 to 500 nM | I84V/L90M fold change ([2]; fold change): − (≦3)

CCOP(=O)(COCCCN1C(=O)N(Cc2ccc3[nH]nc(N)c3c2)C(Cc2ccccc2)C(O)C(O)C1Cc1ccccc1)OCC (centres unmarked) [OCH2PO3Et2]
IC50 (84V90M [3]): 157 nM | EC50 (84V90M [4]): > 6000 nM

Nc1n[nH]c2ccc(CN3C(=O)N(CCCOCP(=O)(O)O)C(Cc4ccccc4)C(O)C(O)C3Cc3ccccc3)cc12 (centres unmarked) [OCH2PO3H2]
IC50 (84V90M [3]): 137 nM | EC50 (84V90M [4]): > 6000 nM

CCOP(=O)(COc1ccc(CC2C(O)C(O)C(Cc3ccc(OC)cc3)N(Cc3cccnc3)C(=O)N2Cc2cccnc2)cc1)OCC (centres unmarked) [OCH3, m-pyridine, OCH2PO3Et2]
EC50 (84V90M [4]): 765 nM

COc1ccc(S(=O)(=O)N(CC(C)C)C[C@@H](O)[C@H](Cc2ccc(OCP(=O)(OCc3ccccc3)OCc3ccccc3)cc2)NC(=O)OC2CCOC2)cc1 (some centres unmarked) [OMe, OBn]
EC50 ([1]; read-out: EC50): < 50 nM | I84V/L90M fold change ([2]; fold change): ++ (>10 to ≦30)

CCOP(=O)(COc1ccc(CC(NC(=O)OC2CCOC2)C(O)CN(CC(C)C)S(=O)(=O)c2ccc(OC)cc2)cc1)OCC (centres unmarked) [OMe, OEt]
Ki ([5]; read-out: Ki): < 10 pM and 10 to 100 pM | EC50 ([1]; read-out: EC50): < 50 nM

COc1ccc(S(=O)(=O)N(CC(C)C)C[C@@H](O)[C@H](Cc2ccc(OCP(=O)(O)O)cc2)NC(=O)OC2CCOC2)cc1 (some centres unmarked) [OMe, OH]
I84V/L90M fold change ([2]; fold change): +++ (>30)

COc1ccc(S(=O)(=O)N(CC(C)C)C[C@@H](O)[C@H](Cc2ccc(OCP(=O)(Oc3ccccc3)Oc3ccccc3)cc2)NC(=O)OC2CCOC2)cc1 (some centres unmarked) [OMe, phenol]
Ki ([5]; read-out: Ki): < 10 pM | EC50 ([1]; read-out: EC50): < 50 nM | I84V/L90M fold change ([2]; fold change): + (>3 to ≦10)

COc1ccc(S(=O)(=O)N(CC(C)C)CC(O)C(Cc2ccc(OCP(=O)(OC(C)C)OC(C)C)cc2)NC(=O)OC2COC3OCCC23)cc1 (centres unmarked) [drawing 1768 R1=OiPr R2=OiPr]
I84V/L90M fold change [2, 7]: − (≦3)

CCOP(=O)(OCC)c1ccc(CC(NC(=O)OC2COC3OCCC23)C(O)CN(CC(C)C)S(=O)(=O)c2ccc(OC)cc2)cc1 (centres unmarked) [drawing 1770 R1=OEt R2=OEt]
EC50 [1, 6]: < 50 nM | I84V/L90M fold change [2, 7]: − (≦3)

COc1ccc(S(=O)(=O)N(CC(C)C)CC(O)C(Cc2ccc(OCP(=O)(NC(C)C(=O)OC(C)C)Oc3ccccc3)cc2)NC(=O)OC2COC3OCCC23)cc1 (centres unmarked) [drawing 1774 R1=OPh R2=Ala-iPr]
I84V/L90M fold change [2, 7]: − (≦3)

COc1ccc(S(=O)(=O)N(CC(C)C)CC(O)C(Cc2ccc(NCP(=O)(NC(C)C(=O)OC(C)C)Oc3ccccc3)cc2)NC(=O)OC2COC3OCCC23)cc1 (centres unmarked) [drawing 1822]
EC50 ([1]; class symbols): < 50 nM

CC(C)CN(CC(O)C(Cc1ccc(OCP(=O)(NC(C)C(=O)OC(C)C)Oc2ccccc2)cc1)NC(=O)OC1CCOC1)S(=O)(=O)c1ccc(N)cc1 (centres unmarked) [drawing 1864 R1=OPh R2=Ala-iPr]
Ki ([5]; Ki (pM), class symbols): 10 to 100 pM | EC50 [1, 8]: 50 to 500 nM

CCCCOC(=O)C(C)NP(=O)(COc1cccc(CN2C(=O)N(Cc3ccc4[nH]nc(N)c4c3)C(Cc3ccccc3)C(O)C(O)C2Cc2ccccc2)c1)NC(C)C(=O)OCCCC (centres unmarked) [m-bis-Ala-Bu]
EC50 (84V90M [4]): > 6000 nM

CCOC(=O)C(C)NP(=O)(COc1cccc(CN2C(=O)N(Cc3ccc4[nH]nc(N)c4c3)C(Cc3ccccc3)C(O)C(O)C2Cc2ccccc2)c1)NC(C)C(=O)OCC (centres unmarked) [m-bis-Ala-Et]
EC50 (84V90M [4]): > 6000 nM
